EC50 data for 40 compounds are collected here from US11040954B1, “CXCR3 receptor agonists” (RECEPTOS LLC, priority 2016, dated 2021).

The assay addresses T1, CXCR3 (Homo sapiens, UniProt P49682).
T1 construct: host or cells: CHO-K1 (cAMP Hunter CHOK1 CXCR3 Gi cell line)
T1 sequence (P49682 1-368): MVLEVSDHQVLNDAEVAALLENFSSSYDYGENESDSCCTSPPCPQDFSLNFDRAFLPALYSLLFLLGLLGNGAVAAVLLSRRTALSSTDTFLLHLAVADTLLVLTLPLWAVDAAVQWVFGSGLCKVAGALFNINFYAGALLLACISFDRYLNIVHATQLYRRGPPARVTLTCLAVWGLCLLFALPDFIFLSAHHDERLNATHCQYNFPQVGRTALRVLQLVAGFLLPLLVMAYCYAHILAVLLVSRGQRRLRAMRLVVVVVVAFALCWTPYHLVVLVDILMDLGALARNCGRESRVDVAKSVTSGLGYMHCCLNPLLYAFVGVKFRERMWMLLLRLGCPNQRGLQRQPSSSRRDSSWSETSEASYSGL
The assay can be described thus: CXCR3 cAMP agonist assay (cAMP Hunter CHOK1 CXCR3 Gi cell line, forskolin-stimulated, HitHunter cAMP detection). In kind it is cell-based. The conditions noted are these: cAMP Hunter CHOK1 CXCR3 Gi cells, 20 μM forskolin, 30 minutes; read-out: Activity (CXCR3 cAMP agonist assay compound EC50). Put shortly:
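Agonist activity was measured as suppression of forskolin (20 μM)-induced cAMP, read by luminescent enzyme-fragment complementation with a cAMP standard curve and CXCL11 defining full efficacy. Assay used 50,000 CXCR3 Gi CHOK1 cells/well in pH 7.4 HEPES-buffered HBSS with 0.1% BSA, compound 0-10 μM over 12 points, 30 min incubation.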

pEC50: −log10 of the molar value.

The term pEC50 denotes the negative decadic logarithm of the EC50, by convention in mol/L. With `Cc1ccc(OC(F)(F)F)c(NC(=O)[C@H](CCN)NC(=O)[C@@H]2Cc3ccccc3CN2C(=O)CCC(=O)c2ccccc2)c1` [Compound 14-25], the pEC50 was above 7.30. On to `Cc1cc(NC(=O)[C@H](CCN)NC(=O)[C@@H]2Cc3ccccc3CN2C(=O)CCC(=O)N2CCN(C(=O)N(C)C)CC2)ccc1Cl` [Compound 12-109], for which the pEC50 is 6.30 to 6.60. Regarding `CN1CN(C(=O)CCC(=O)N2Cc3ccccc3C[C@H]2C(=O)N[C@@H](CCN)C(=O)Nc2ccc(Cl)c(Cl)c2F)CC1=O` [Compound 15-45], the negative logarithm of the EC50 (pEC50) was 6.30 to 6.60. Turning to `O=C(CCC(=O)N1Cc2ccccc2C[C@H]1C(=O)N[C@@H](CCN1CCC(F)(F)C1)C(=O)Nc1ccc(Cl)c(Cl)c1F)c1ccccc1` [Compound 23-4], the negative-log EC50 (pEC50) was 6.60 to 7.30. As to `Cc1cc(NC(=O)[C@H](CCN)NC(=O)[C@@H]2Cc3ccccc3CN2C(=O)CCC(=O)N2CCC2)ccc1Cl` [Compound 12-30], the pEC50 was 6.60 to 7.30. The figure for `Cc1cc(NC(=O)[C@H](CCN2CCOCC2)NC(=O)[C@@H]2Cc3ccccc3CN2C(=O)CCC(=O)c2ccccc2)ccc1Cl` [Compound 5-4] is 6.60 to 7.30; for `CC1(C)CCCN1C(=O)CCC(=O)N1Cc2cc(F)ccc2C[C@H]1C(=O)N[C@@H](CCN)C(=O)Nc1ccc(Cl)c(Cl)c1F` [Compound 15-61] it is above 7.30. On to `NCC[C@H](NC(=O)[C@@H]1Cc2ccccc2CN1C(=O)CCC(=O)c1ccccc1)C(=O)Nc1ccc2c(c1)OCO2` [Compound 2-63], for which the pEC50 is 6.60 to 7.30. With `NCCCC[C@H](NC(=O)[C@@H]1Cc2ccccc2CN1C(=O)CCC(=O)c1ccccc1)C(=O)Nc1cc(Cl)cc(Cl)c1` [Compound 1-17] the figure was 6.60 to 7.30; with `COc1cc(C)c(Cl)cc1NC(=O)[C@H](CCN)NC(=O)[C@@H]1Cc2ccccc2CN1C(=O)CCC(=O)c1ccccc1` [Compound 1-36], above 7.30. With `Cc1cc(NC(=O)[C@H](CCCNC(C)C)NC(=O)[C@@H]2Cc3ccccc3CN2C(=O)CCC(=O)c2ccccc2)ccc1Cl` [Compound 8-5] the figure was above 7.30; with `Cc1cc(NC(=O)[C@H](CCN)NC(=O)[C@@H]2Cc3ccccc3CN2C(=O)CCC(=O)N(C)CCC(C)(C)C)ccc1Cl` [Compound 12-98], above 7.30.

For `Cc1cc(NC(=O)[C@H](CCN)NC(=O)[C@@H]2Cc3ccccc3CN2C(=O)CCC(=O)NC2CC2(F)F)ccc1Cl` (stereo partly shown) [Compound 12-82], the negative logarithm of the EC50 (pEC50) was 6.30 to 6.60. As to `CCC(C)(C)NC(=O)CCC(=O)N1Cc2ccccc2C[C@H]1C(=O)N[C@@H](CCN)C(=O)Nc1ccc(Cl)c(C)c1` [Compound 12-92], the pEC50 is 6.60 to 7.30. Regarding `COCCN(C)C(=O)CCC(=O)N1Cc2ccccc2C[C@H]1C(=O)N[C@@H](CCN)C(=O)Nc1ccc(Cl)c(C)c1` [Compound 12-113], the pEC50 was 6.30 to 6.60. Take `NCC[C@H](NC(=O)[C@@H]1Cc2ccccc2CN1C(=O)CCC(=O)N1CCC2CCCCC21)C(=O)Nc1ccc(Cl)c(Cl)c1F` (stereo partly shown) [Compound 15-38]: the negative-log EC50 (pEC50) was above 7.30. The figure for `Cc1cc(NC(=O)[C@H](CCN)NC(=O)[C@@H]2Cc3ccccc3CN2C(=O)CCC(=O)N2CCCC[C@@H]2C)ccc1Cl` [Compound 12-56] is above 7.30. With `Cc1ccc(NC(=O)[C@H](CCCNC(=N)N)NC(=O)[C@@H]2Cc3ccccc3CN2C(=O)CCC(=O)c2ccccc2)cc1C` [Compound 1-33], the negative logarithm of the EC50 (pEC50) is above 7.30.

As to `Cc1cc(NC(=O)[C@H](CCN)NC(=O)[C@@H]2Cc3ccccc3CN2C(=O)CCC(=O)N2CC(N(C)C)C2)ccc1Cl` [Compound 12-133], the pEC50 was 6.60 to 7.30. On to `Cc1ccc(NC(=O)[C@H](CCN)NC(=O)[C@@H]2Cc3ccccc3CN2C(=O)CCC(=O)c2ccccc2)c(C(F)(F)F)c1` [Compound 14-13], for which the negative-log EC50 (pEC50) is 6.30 to 6.60. With `NCCCC[C@H](NC(=O)[C@@H]1Cc2ccccc2CN1C(=O)CCC(=O)c1ccccc1)C(=O)Nc1cccc(F)c1` [Compound 1-8], the pEC50 is below 6.30. As to `NCC[C@H](NC(=O)[C@@H]1Cc2ccccc2CN1C(=O)CCC(=O)c1ccccc1)C(=O)Nc1ccc2c(c1)CCCC2` [Compound 2-46], the pEC50 was above 7.30. `COc1c(C)cccc1NC(=O)[C@H](CCN)NC(=O)[C@@H]1Cc2ccccc2CN1C(=O)CCC(=O)c1ccccc1` [Compound 2-51]: the pEC50 is 6.60 to 7.30. The figure for `Cc1cc(NC(=O)[C@H](CCN)NC(=O)[C@@H]2Cc3ccccc3CN2C(=O)CCC(=O)N2CCC(C(F)(F)F)C2)ccc1Cl` (stereo partly shown) [Compound 12-52] is above 7.30; for `CCOc1cccc(C(=O)CCC(=O)N2Cc3ccccc3C[C@H]2C(=O)N[C@@H](CCCCN)C(=O)Nc2ccc(Cl)c(C)c2)c1` [Compound 7-7] it is 6.60 to 7.30. With `CC1CN(C(=O)CCC(=O)N2Cc3ccccc3C[C@H]2C(=O)N[C@@H](CCN)C(=O)Nc2ccc(Cl)c(Cl)c2F)CCN1C` (stereo partly shown) [Compound 15-5] the figure was above 7.30. Take `Cc1cc(NC(=O)[C@H](CCCC[N+](C)(C)C)NC(=O)[C@@H]2Cc3ccccc3CN2C(=O)CCC(=O)c2ccccc2)ccc1Cl` [Compound 6-3]: the pEC50 is 6.60 to 7.30. The figure for `CCC(CC)C1CCCCN1C(=O)CCC(=O)N1Cc2ccccc2C[C@H]1C(=O)N[C@@H](CCN)C(=O)Nc1ccc(Cl)c(Cl)c1F` (stereo partly shown) [Compound 15-23] is 6.60 to 7.30. Take `Cc1cc(C(=O)CCC(=O)N2Cc3ccccc3C[C@H]2C(=O)N[C@@H](CCCCN)C(=O)Nc2ccc(Cl)c(C)c2)ccc1F` [Compound 7-3]: the pEC50 is 6.60 to 7.30. On to `NCC[C@H](NC(=O)[C@@H]1Cc2ccccc2CN1C(=O)CCC(=O)c1ccccc1)C(=O)Nc1ccc(Cl)cc1F` [Compound 2-9], for which the pEC50 was 6.60 to 7.30. `CC(C)(C)C1CCCCN1C(=O)CCC(=O)N1Cc2ccccc2C[C@H]1C(=O)N[C@@H](CCN)C(=O)Nc1ccc(Cl)c(Cl)c1F` (stereo partly shown) [Compound 15-32]: the negative logarithm of the EC50 (pEC50) was 6.30 to 6.60. The figure for `Cc1cc(NC(=O)[C@H](CCCCN)NC(=O)[C@@H]2Cc3ccccc3CN2C(=O)CCC(=O)c2ccccc2)ccc1C(F)(F)F` [Compound 1-28] is 6.60 to 7.30; for `Cc1c(Cl)ccc(NC(=O)[C@H](CCN)NC(=O)[C@@H]2Cc3ccccc3CN2C(=O)CCC(=O)c2ccccc2)c1Cl` [Compound 14-3] it is above 7.30; for `NCC[C@H](NC(=O)[C@@H]1Cc2ccccc2CN1C(=O)CCC(=O)c1ccccc1)C(=O)Nc1cnc2ccccc2c1` [Compound 2-44] it is above 7.30.

On to `O=C(CCC(=O)N1Cc2ccccc2CC1C(=O)NC(CCN1CCC(F)CC1)C(=O)Nc1ccc(Cl)c(Cl)c1F)c1ccccc1` (racemic) [Compound 23-3], for which the pEC50 was above 7.30. With `Cc1cc(NC(=O)[C@H](CCN)NC(=O)[C@@H]2Cc3ccccc3CN2C(=O)CCC(=O)N2CCCCCC2)ccc1Cl` [Compound 12-13] the figure was above 7.30. In the case of `Cc1cc(NC(=O)[C@H](CCN2CCC(O)CC2)NC(=O)[C@@H]2Cc3ccccc3CN2C(=O)CCC(=O)c2ccccc2)c(F)cc1Cl` (racemic) [Compound 25-2], the negative-log EC50 (pEC50) is 6.60 to 7.30. The figure for `NCC[C@H](NC(=O)[C@@H]1Cc2ccccc2CN1C(=O)CCC(=O)c1ccccc1)C(=O)Nc1cc(Cl)c(Cl)cn1` [Compound 4-15] is 6.30 to 6.60; for `Cc1cc(NC(=O)[C@H](CCN)NC(=O)[C@@H]2Cc3ccccc3CN2C(=O)CCC(=O)c2ccccc2)cc(Cl)c1Cl` [Compound 4-18] it is 6.60 to 7.30; for `Cc1cc(NC(=O)[C@H](CCN)NC(=O)[C@@H]2Cc3ccccc3CN2C(=O)CCC(=O)N2[C@H](C)CCC[C@@H]2C)ccc1Cl` [Compound 12-43] it is above 7.30.
